From the supplement of paper PMC10307832

Columns and labels:
Experiment in all cases: relative viability (nuclei count vs DMSO), 5 days (fraction); higher = more cells survive
[1] = compound: CCc1cnn2c(NCc3ccc[n+]([O-])c3)cc(N3CCCC[C@H]3CCO)nc12 [Dinaciclib]
Procedure, shortened: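 Five library-drug doses spaced by √10 were pinned onto vehicle-anchored 1536-well plates of lung cancer cell lines that had been kept overnight at 37 °C. Cells went 5 days without medium change, then were fixed, permeabilised and Hoechst-stained together, imaged at 4× and counted by MetaXpress. Viability is the ratio of treated-well to vehicle-well nuclei, taken as a median over plates. Plates required control CV below 25% and at least one doubling.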

[2] = compound: CCc1cnn2c(NCc3ccc[n+]([O-])c3)cc(N3CCCC[C@H]3CCO)nc12 [Dinaciclib] + O=C(CCCCCCC(=O)Nc1ccccc1)NO [Vorinostat] (partner 1 µM)
Procedure, shortened: (§1)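 Five library-drug doses in √10 steps were combined with a fixed anchor-drug dose, or a single drug was given alone, by pin tool to lung cancer cell lines in 1536-well plates the day after seeding. Nuclei were stained and counted after 5 days. Relative viability is the nuclei count in treated wells over that in vehicle wells, taken as the median of duplicate plates.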

[3] = compound: CCc1cnn2c(NCc3ccc[n+]([O-])c3)cc(N3CCCC[C@H]3CCO)nc12 [Dinaciclib] + CS(=O)(=O)CCNCc1ccc(-c2ccc3ncnc(Nc4ccc(OCc5cccc(F)c5)c(Cl)c4)c3c2)o1 [Lapatinib] (partner 2 µM)
Procedure, shortened: as §1

[4] = compound: CCc1cnn2c(NCc3ccc[n+]([O-])c3)cc(N3CCCC[C@H]3CCO)nc12 [Dinaciclib] + CC(=O)Nc1cccc(-n2c(=O)n(C3CC3)c(=O)c3c(Nc4ccc(I)cc4F)n(C)c(=O)c(C)c32)c1 [Trametinib] (partner 0.02 µM)
Procedure, shortened: as §1

[5] = compound: CCc1cnn2c(NCc3ccc[n+]([O-])c3)cc(N3CCCC[C@H]3CCO)nc12 [Dinaciclib] + NC(=O)Nc1cc(-c2cccc(F)c2)sc1C(=O)N[C@H]1CCCNC1 [AZD7762] (partner 0.2 µM)
Procedure, shortened: as §1

Row | Cell Line | relative viability ([1]; 0.009487 µM) | relative viability ([1]; 0.03 µM) | relative viability ([1]; 0.09487 µM) | relative viability ([1]; 0.3 µM) | relative viability ([2]; first compound 0.009487 µM) | relative viability ([2]; first compound 0.03 µM) | relative viability ([2]; first compound 0.09487 µM) | relative viability ([2]; first compound 0.3 µM) | relative viability ([3]; first compound 0.009487 µM) | relative viability ([3]; first compound 0.03 µM) | relative viability ([3]; first compound 0.09487 µM) | relative viability ([3]; first compound 0.3 µM) | relative viability ([4]; first compound 0.009487 µM) | relative viability ([4]; first compound 0.03 µM) | relative viability ([4]; first compound 0.09487 µM) | relative viability ([4]; first compound 0.3 µM) | relative viability ([5]; first compound 0.009487 µM) | relative viability ([5]; first compound 0.03 µM) | relative viability ([5]; first compound 0.09487 µM) | relative viability ([5]; first compound 0.3 µM)
1 | EKVX | 0.996 | 0.601 | 0.184 | 0.13 | 0.612 | 0.472 | 0.167 | 0.226 | 0.229 | 0.118 | 0.118 | 0.116 | 0.333 | 0.219 | 0.11 | 0.108 | 0.756 | 0.436 | 0.127 | 0.101
2 | HARA | 0.912 | 0.18 | 0.088 | 0.0759 | 0.527 | 0.331 | 0.0816 | 0.0937 | 0.604 | 0.0778 | 0.0593 | 0.0436 | 0.519 | 0.213 | 0.114 | 0.111 | 0.349 | 0.116 | 0.127 | 0.123
3 | EMC-BAC-2 | 0.951 | 0.413 | 0.224 | 0.197 | 0.36 | 0.166 | 0.152 | 0.143 | 0.85 | 0.598 | 0.165 | 0.157 | 0.842 | 0.21 | 0.219 | 0.22 | 0.935 | 0.657 | 0.22 | 0.237
4 | PC-14 | 0.766 | 0.163 | 0.0662 | 0.0529 | 0.737 | 0.251 | 0.0426 | 0.0456 | 0.305 | 0.221 | 0.106 | 0.0778 | 0.412 | 0.0589 | 0.0476 | 0.0471 | 0.389 | 0.0715 | 0.0519 | 0.0512
5 | NCI-H1755 | 1.01 | 0.894 | 0.257 | 0.266 | 0.739 | 0.452 | 0.227 | 0.242 | 1.05 | 0.829 | 0.163 | 0.184 | 0.786 | 0.46 | 0.225 | 0.202 | 0.49 | 0.306 | 0.211 | 0.219
6 | NCI-H2087 | 0.954 | 0.14 | 0.111 | 0.122 | 0.753 | 0.114 | 0.12 | 0.0878 | 0.828 | 0.168 | 0.15 | 0.136 | 0.143 | 0.11 | 0.101 | 0.107 | 1.44 | 0.108 | 0.127 | 0.123
7 | CAL-12T | 0.479 | 0.163 | 0.121 | 0.137 | 0.511 | 0.0992 | 0.1 | 0.131 | 0.323 | 0.171 | 0.179 | 0.149 | 0.187 | 0.0992 | 0.122 | 0.11 | 0.565 | 0.187 | 0.14 | 0.183
8 | NCI-H2085 | 1.07 | 0.685 | 0.27 | 0.268 | 0.907 | 0.503 | 0.221 | 0.214 | 0.712 | 0.238 | 0.249 | 0.26 | 0.439 | 0.259 | 0.187 | 0.183 | 1.14 | 0.391 | 0.211 | 0.221
9 | NCI-H650 | 0.874 | 0.21 | 0.159 | 0.137 | 0.336 | 0.146 | 0.129 | 0.157 | 0.566 | 0.171 | 0.0978 | 0.146 | 0.964 | 0.189 | 0.122 | 0.13 | 1.08 | 0.153 | 0.148 | 0.173
10 | LCLC-97TM1 | 0.506 | 0.134 | 0.0776 | 0.0861 | 0.56 | 0.0645 | 0.0617 | 0.0592 | 0.662 | 0.173 | 0.0769 | 0.0958 | 0.216 | 0.0795 | 0.0706 | 0.0687 | 0.385 | 0.0625 | 0.0497 | 0.0774
11 | NCI-H2126 | 1.03 | 0.563 | 0.247 | 0.207 | 0.817 | 0.345 | 0.176 | 0.194 | 0.784 | 0.354 | 0.204 | 0.231 | 0.53 | 0.41 | 0.165 | 0.175 | 1.13 | 0.899 | 0.29 | 0.198
12 | 201T | 1.09 | 0.632 | 0.339 | 0.236 | 1.24 | 0.74 | 0.214 | 0.213 | 1.14 | 0.743 | 0.361 | 0.245 | 0.821 | 0.675 | 0.249 | 0.228 | 0.79 | 0.844 | 0.252 | 0.228
13 | NCI-H1915 | 0.69 | 0.202 | 0.159 | 0.12 | 0.534 | 0.291 | 0.116 | 0.104 | 0.715 | 0.134 | 0.102 | 0.111 | 0.343 | 0.225 | 0.114 | 0.0978 | 0.763 | 0.354 | 0.115 | 0.0982
14 | BEN | 1.06 | 0.812 | 0.214 | 0.257 | 0.67 | 0.63 | 0.345 | 0.308 | 0.731 | 0.343 | 0.166 | 0.186 | 1.44 | 0.981 | 0.349 | 0.291 | 0.894 | 0.566 | 0.217 | 0.287
15 | NCI-H2347 | 1.01 | 0.538 | 0.257 | 0.214 | 0.515 | 0.304 | 0.252 | 0.228 | 0.959 | 0.637 | 0.214 | 0.259 | 0.301 | 0.247 | 0.159 | 0.154 | 0.78 | 0.226 | 0.2 | 0.185
16 | H3255 | 0.928 | 0.56 | 0.219 | 0.196 | 0.705 | 0.51 | 0.211 | 0.205 | 0.378 | 0.233 | 0.123 | 0.214 | 0.629 | 0.27 | 0.194 | 0.201 | 1.04 | 0.62 | 0.209 | 0.208
